In patent EP1311531B1, “STEROID DERIVED ANTIBIOTICS” (Brigham Young University, priority 2000, dated 2002):
≈ marks a conversion by molar mass, not a printed value.

Test system: Gram-negative bacteria
Assay: MIC and permeabilization measurements, strain not stated (Table 14, Fig. 5)

C[C@H](CCCO)[C@H]1CC[C@H]2[C@@H]3[C@H](NC(=O)CCCCCN)C[C@@H]4C[C@H](NC(=O)CCCCCN)CC[C@]4(C)[C@H]3C[C@H](NC(=O)CCCCCN)[C@]12C [Compound 211]
activity as a permeabilizer (in words): less active than 209c as a permeabilizer

CC(CCCO)C1CCC2C3C(NC(=O)C(N)CCCCN)CC4CC(NC(=O)C(N)CCCCN)CCC4(C)C3CC(NC(=O)C(N)CCCCN)C12C (stereo not shown) [Compound 209c]
MIC (Table 14): 85 µg/mL (≈ 110 µM) | a: concentration of cholic acid derivatives required to lower MIC of erythromycin to 1 µg/ML (Table 14): 45 µg/mL | b: concentration of cholic acid derivatives required to lower MIC of novobiocin to 1 µg/ML (Table 14): 60 µg/mL

C[C@H](CCCO)[C@H]1CC[C@H]2[C@@H]3[C@H](N)C[C@@H]4C[C@H](N)CC[C@]4(C)[C@H]3C[C@H](N)[C@]12C [Compound 206]
activity as a permeabilizer (in words): ineffective as a permeabilizer

C[C@H](CCCN)[C@H]1CC[C@H]2[C@@H]3[C@H](OCCCN)C[C@@H]4C[C@H](OCCCN)CC[C@]4(C)[C@H]3C[C@H](OCCCN)[C@]12C [Compound 135]
MBC (in words, text on Fig. 5): relatively high | MIC (in words, text on Fig. 5): relatively high
